Measurements as given in US20220135547A1, “HETEROCYCLIC LOW-MOLECULAR SAPP MIMETICS, A PHARMACEUTICAL COMPOSITION AND METHODS FOR PRODUCING AND USING SAME” (priority 2010, published 2022).

Test system: 1-3 days old chicken memory
Assay: one-trial passive avoidance learning task in chicks (weak training, test 24 hours after training)
Assay type: in vivo
Conditions: for dosage at which the maximum effect was observed: weak training, chicks
Description: The method of one-trial passive avoidance learning task has been used in order to investigate the compounds action on 1-3 days old chicken memory. This is the basic method using for investigation the mechanisms of memory formation. Cross chickens (males) “Ptichnoe” were used in experiments. The animals were delivered at the day of hatching and were kept in pairs in the cages which measured 20×25×20 cm, with constant access to water and feed, at a temperature 28° C. and a light cycle of 12:12 hours. The minimal adaptation time was two hours.
The compounds were dissolved in sterile saline. Intraperitoneal injections of 0.1 ml were used for systemic administration. Bilateral intracranial injections were administrated to the lateral ventricles with […] microsyringe («Hamilton») using plastic headholder. The volume of injections was […] for hemisphere. To control the localizations of injections the monitoring of the surface of skull and brain were carried out after the experiment and decapitation. Control groups received saline of the same volume.
The experiments were conducted according the following scheme: 20 minutes before training the animals were pretrained by being offered two neutral (wet with water) […] fixed to a rod. For further training chicks that pecked each bead within first 10 sec were used. Chicks were offered an aversive bead wet with pungent solution (10% solution of methylanthranilate in ethanol). […] Testing was conducted 24 hours after training by offering within 10 seconds a similar but dry aversive bead, and then—a neutral bead. The avoidance of aversive bead was estimated as a long-term memory.

[1] = administrated either immediately before training, or 4 hours after completion of the training

With `COC(=O)c1ccc(C(NCCc2ccncc2)C(=O)NCCc2ccncc2)cc1` (stereo not drawn) [ACB-0002, Methyl 4-{2-oxo-1,2-bis[(2-pyridine-4-ylethyl)amino]ethyl}benzoate] the effect on memory [1] was “may enhance memory”.
`O=C(NCCc1ccncc1)C(NCCc1ccncc1)c1ccc2c(c1)OCO2` (stereo not drawn) [ACB-0005, 2-(1,3-benzodioxole-5-yl)-N-(2-pyridine-4-ylethyl)-2-[(2-pyridine-4-ylethyl)-amino]acetamid] was tested, and the “dosage at which the maximum effect was observed” value (10 min training (route not given)) was 0.1 mg/kg, the effect on memory [1] was “may enhance memory” and the “dosage at which the maximum effect was observed, per animal” value (equivalent of 0.1 mg/kg, 10 min training) was 4 µg per animal. The “dosage at which the maximum effect was observed” value (intracranial injection 10-30 min before training) was 5 mg and the effect on memory (oral administration 30 min before weak treatment, dosage 0.1 to 1.0 mg/kg) was “stimulating effect on memory”.
